Assay results taken from the supplement of paper PMC10307832.

Tests used:
Test in all cases: relative viability (nuclei count vs DMSO), 5 days (fraction); higher = more cells survive
Phenformin = compound: N=C(N)NC(=N)NCCc1ccccc1 [Phenformin] (anchor plate); details: 250 µM
How it was run: (§1)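 Lung cancer cell lines received five library-drug doses (not always all listed) spaced by √10, pinned on vehicle-anchored 1536-well plates after an overnight stay at 37 °C. Five days later, with no medium change, nuclei were Hoechst-stained, imaged at 4× and counted with MetaXpress. Viability is treated-well nuclei relative to vehicle-well nuclei, as a median across plates. Passing plates had control CV below 25% and at least one doubling.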

AT9283 = compound: O=C(Nc1c[nH]nc1-c1nc2ccc(CN3CCOCC3)cc2[nH]1)NC1CC1 [AT9283]
How it was run: as §1

Erlotinib = compound: C#Cc1cccc(Nc2ncnc3cc(OCCOC)c(OCCOC)cc23)c1 [Erlotinib]
How it was run: as §1

Erlotinib + Palbociclib = compound: C#Cc1cccc(Nc2ncnc3cc(OCCOC)c(OCCOC)cc23)c1 [Erlotinib] + CC(=O)c1c(C)c2cnc(Nc3ccc(N4CCNCC4)cn3)nc2n(C2CCCC2)c1=O [Palbociclib] (partner 0.5 µM)
How it was run: (§2)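 Each reported value is a median over duplicate plates. It expresses relative viability: treated-well nuclei count divided by vehicle-well nuclei count. Lung cancer cell lines in 1536-well plates were dosed by pin tool a day after seeding, alone with one drug or with a fixed anchor-drug dose plus five library-drug doses (not always all listed) in √10 steps, and nuclei were counted after 5 days.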

AT9283 + Olaparib = compound: O=C(Nc1c[nH]nc1-c1nc2ccc(CN3CCOCC3)cc2[nH]1)NC1CC1 [AT9283] + O=C(c1cc(Cc2n[nH]c(=O)c3ccccc23)ccc1F)N1CCN(C(=O)C2CC2)CC1 [Olaparib] (partner 8 µM)
How it was run: as §2

Row | Cell Line | relative viability (Phenformin) | relative viability (AT9283; 0.003 µM) | relative viability (AT9283; 0.03 µM) | relative viability (AT9283; 0.09487 µM) | relative viability (AT9283; 0.3 µM) | relative viability (Erlotinib; 0.02 µM) | relative viability (Erlotinib; 0.2 µM) | relative viability (Erlotinib; 0.6325 µM) | relative viability (Erlotinib; 2 µM) | relative viability (Erlotinib + Palbociclib; first compound 0.02 µM) | relative viability (Erlotinib + Palbociclib; first compound 0.2 µM) | relative viability (Erlotinib + Palbociclib; first compound 0.6325 µM) | relative viability (Erlotinib + Palbociclib; first compound 2 µM) | relative viability (AT9283 + Olaparib; first compound 0.003 µM) | relative viability (AT9283 + Olaparib; first compound 0.03 µM) | relative viability (AT9283 + Olaparib; first compound 0.09487 µM) | relative viability (AT9283 + Olaparib; first compound 0.3 µM)
1 | HCC-366 | 0.608 | 0.956 | 0.938 | 0.54 | 0.204 | 1.03 | 1.07 | 0.984 | 1.01 | 0.389 | 0.358 | 0.544 | 0.312 | 0.362 | 0.262 | 0.113 | 0.0721
2 | HCC-827 | 0.4 | 0.985 | 0.855 | 0.618 | 0.358 | 0.549 | 0.185 | 0.177 | 0.208 | 0.191 | 0.146 | 0.135 | 0.154 | 0.702 | 0.53 | 0.344 | 0.255
3 | HOP-62 | 0.673 | 1 | 0.771 | 0.393 | 0.273 | 1.01 | 0.972 | 1.08 | 1.04 | 0.544 | 0.517 | 0.453 | 0.41 | 0.514 | 0.308 | 0.137 | 0.201
4 | IA-LM | – | 0.853 | 0.735 | 0.267 | 0.111 | 0.947 | 0.777 | 1.08 | 0.885 | – | – | – | – | 0.998 | 0.524 | 0.243 | 0.145
5 | LC-2-ad | 0.605 | 0.93 | 0.695 | 0.233 | 0.177 | 0.998 | 1.08 | 1.01 | 0.826 | 0.527 | 0.491 | 0.472 | 0.411 | 0.708 | 0.647 | 0.304 | 0.196
6 | LCLC-97TM1 | 0.391 | 0.841 | 0.469 | 0.159 | 0.112 | 1.07 | 1.14 | 1.23 | 0.972 | 0.234 | 0.243 | 0.256 | 0.194 | 0.41 | 0.233 | 0.103 | 0.0959
7 | LCLC-103H | 0.348 | 0.885 | 1.02 | 0.926 | 0.376 | 1.03 | 0.919 | 1 | 0.929 | 0.503 | 0.429 | 0.457 | 0.467 | 0.77 | 0.784 | 0.467 | 0.37
8 | LK-2 | 0.485 | 0.937 | 0.57 | 0.168 | 0.195 | 0.993 | 0.864 | 1.36 | – | 0.579 | 0.589 | 0.712 | 0.743 | 0.742 | 0.312 | 0.113 | 0.103
9 | LOU-NH91 | 0.705 | 0.936 | 0.812 | 0.614 | 0.48 | 0.831 | 0.696 | 0.756 | 0.68 | 0.564 | 0.546 | 0.624 | 0.542 | 0.915 | 0.774 | 0.512 | 0.441
10 | LU99A | 0.886 | 0.88 | 0.477 | 0.253 | 0.186 | 0.932 | 0.952 | 0.913 | 0.916 | 0.466 | 0.421 | 0.38 | 0.327 | 0.258 | 0.214 | 0.14 | 0.123
11 | LXF-289 | 0.518 | 0.995 | 0.993 | 0.465 | 0.22 | 0.98 | 1.03 | 0.971 | 0.963 | 0.583 | 0.566 | 0.531 | 0.539 | 1.13 | 0.98 | 0.0877 | 0.0796
12 | NCI-H23 | 0.749 | 0.895 | 0.71 | 0.432 | 0.306 | 0.959 | 0.757 | 1.16 | 0.979 | 0.571 | 0.447 | 0.453 | 0.509 | 0.334 | 0.297 | 0.3 | 0.211
13 | NCI-H322M | 0.791 | 0.817 | 0.67 | 0.469 | 0.474 | 0.825 | 0.703 | 0.574 | 0.513 | 0.401 | 0.431 | 0.378 | 0.426 | 0.834 | 0.58 | 0.518 | 0.453
14 | NCI-H358 | 0.359 | 0.863 | 0.2 | 0.192 | 0.158 | 1.01 | 0.631 | 0.547 | 0.308 | 0.132 | 0.146 | 0.109 | 0.108 | 0.513 | 0.202 | 0.091 | 0.105
15 | NCI-H460 | 0.529 | 0.985 | 0.931 | 0.542 | 0.21 | 0.994 | 0.959 | 1.05 | 0.96 | 0.257 | 0.14 | 0.198 | 0.183 | 0.479 | 0.307 | 0.127 | 0.113
16 | NCI-H596 | 0.733 | 0.935 | 0.955 | 0.909 | 0.539 | 0.992 | 0.861 | 0.933 | 0.91 | – | – | – | – | 0.653 | 0.663 | 0.619 | 0.567
17 | NCI-H1299 | – | 1.03 | 0.699 | 0.473 | 0.364 | 1.03 | 1.02 | 1.05 | 0.992 | – | – | – | – | 0.911 | 0.657 | 0.366 | 0.316
18 | NCI-H1563 | 0.681 | 0.995 | 0.815 | 0.661 | 0.617 | 1.03 | 0.898 | – | 0.953 | – | – | – | – | – | – | – | –
19 | NCI-H1623 | 0.577 | 0.94 | 0.928 | 0.545 | 0.501 | 0.945 | 0.723 | 0.592 | 0.333 | – | – | – | – | – | – | – | –
20 | NCI-H1648 | – | 0.765 | 0.886 | 0.493 | 0.312 | 0.83 | 0.704 | 0.608 | 0.439 | 0.337 | 0.277 | 0.293 | 0.272 | 0.636 | 0.584 | 0.254 | 0.461
21 | NCI-H1703 | – | 0.957 | 0.31 | 0.335 | 0.28 | 1.01 | 0.911 | 1.02 | 0.989 | – | – | – | – | 0.383 | 0.155 | 0.169 | 0.229
